From ChEMBL document CHEMBL1156380, “Inhibition of Mycobacterium tuberculosis growth by saringosterol from Lessonia nigrescens” (J Nat Prod, 2001)
Converted amounts (≈) assume the structure as drawn. The source made the active and inactive calls. The rule behind the calls is not given here.

How the values were obtained:
[1] = system: Mycobacterium tuberculosis; experiment: Antitubercular activity against Mycobacterium tuberculosis H37Rv ATCC 27294 by BACTEC 460 radiometric assay; assay type: functional
Vero = experiment: Cytotoxicity against african green monkey Vero cells by celltiter 96 aqueous nonradioactive assay; assay type: cell-based; conditions: Chlorocebus sabaeus

SMILES | MIC [1] | IC50 (Vero) [µg/mL]
C=CC(O)(CC[C@@H](C)[C@H]1CC[C@H]2[C@@H]3CC=C4C[C@@H](O)CC[C@]4(C)[C@H]3CC[C@]12C)C(C)C (stereo partly specified) [SARINGOSTEROL] | 0.25 µg/mL (≈ 0.583 µM) | > 128
C=C[C@](O)(CC[C@@H](C)[C@H]1CC[C@H]2[C@@H]3CC=C4C[C@@H](O)CC[C@]4(C)[C@H]3CC[C@]12C)C(C)C | 1 µg/mL (≈ 2.33 µM) | 
C/C=C(\CC[C@@H](C)[C@H]1CC[C@H]2[C@@H]3CC=C4C[C@@H](O)CC[C@]4(C)[C@H]3CC[C@]12C)C(C)C | inactive | 
CO[C@H]1/C=C/O[C@@]2(C)Oc3c(C)c(O)c4c(O)c(c(/C=N/N5CCN(C)CC5)c(O)c4c3C2=O)NC(=O)/C(C)=C\C=C\[C@H](C)[C@H](O)[C@@H](C)[C@@H](O)[C@@H](C)[C@H](OC(C)=O)[C@@H]1C [RIFAMPIN] | 0.25 µg/mL (≈ 0.304 µM) | 
C=C[C@@](O)(CC[C@@H](C)[C@H]1CC[C@H]2[C@@H]3CC=C4C[C@@H](O)CC[C@]4(C)[C@H]3CC[C@]12C)C(C)C | 0.125 µg/mL (≈ 0.292 µM) | 
